Measurements reported in publication PMC10146491, “Meroterpenoids from Gongolaria abies-marina against Kinetoplastids: In Vitro Activity and Programmed Cell Death Study” (Pharmaceuticals, 2023).

Legend:
[1] = test system: promastigotes of Leishmania infantum; design: method as in PMID 28126391; conditions: read-out: IC50 against promastigotes of Leishmania infantum; cited from earlier work
[2] = test system: intracellular form of L. infantum; design: method as in PMID 28126391; conditions: read-out: IC50 against the intracellular form of L. infantum; cited from earlier work
[3] = test system: promastigotes of L. amazonensis; assay: Leishmanicidal activity assay (Alamar Blue), promastigotes; type: cell-based, Leishmania amazonensis; conditions: for Selectivity index (CC50/IC50), L. amazonensis: CC50 in murine macrophages; for IC50: Leishmania amazonensis, 72 h, Alamar Blue, read-out: Antikinetoplastid activity IC50, L. amazonensis
Description: (§1) To carry out the experiments, promastigotes of Leishmania amazonensis (MHOM/BR/77/LTB0016) and L. donovani (MHOM/IN/90/GE1F8R) and epimastigotes of Trypanosoma cruzi (Y strain) were employed. Leishmania species were cultured in Schneider’s medium (Sigma-Aldrich, Madrid, Spain), supplemented with 10% fetal bovine serum (VWR, Biowest, Nuaillé, France) and incubated at 26 °C. RPMI 1640 medium (Gibco, Thermo Fisher, Madrid, Spain) with or without phenol red was also used to culture the parasites at the same temperature. Epimastigotes of T. cruzi were cultured in liver infusion tryptose (LIT) medium supplemented with 10% fetal bovine serum at 26 °C. A cytotoxicity assay was performed using a murine macrophage cell line J774A.1 (ATCC TIB-67), which was maintained in Dulbecco’s modified Eagle’s medium (Gibco, Thermo Fisher, Madrid, Spain) supplemented with 10% of fetal bovine serum at 37 °C in a 5% CO2 atmosphere.
(§2) With the objective of determining the antiparasitic activity of the compounds isolated from G. abies-marina, leishmanicidal activity assays were performed against promastigote stages of L. amazonensis and L. donovani, as well as a trypanocidal activity assay performed against epimastigote stages of T. cruzi. In both parasites, a colorimetric assay was used based on the Alamar Blue reagent (Life Technologies, Madrid, Spain) as previously described by Bethencourt-Estrella et al. (2021).
(§3) In a sterile 96 well-plate, serial dilutions of the extracts, fractions or compounds isolated from G. abies-marina were performed in RPMI 1640 medium without phenol red (in the case of Leishmania spp.) or in LIT (in the case of T. cruzi) with a final volume of 100 µL. Parasites were added to wells to reach a concentration of 5 × 10^5 (Leishmania spp.) or 2.5 × 10^5 (T. cruzi) until a final volume of 200 µL/well. Next, 10% of Alamar Blue® was placed into each well and the plate was incubated for 72 h at 26 °C. Finally, the fluorescence of each well was measured using an EnSpire® Multimode Plate Reader (Perkin Elmer, Madrid, Spain) (544 nm excitation, 590 nm emission) and the concentration that inhibits 50% of the parasite population (IC50) was calculated using a non-linear regression analysis with 95% confidence limits. Miltefosine and benznidazol were used as reference drugs. To analyze the data and calculate the IC50, SigmaPlot 12.0 statistical analysis software (Systat Software Inc, Palo Alto, CA, USA) was used.
(§4) The 50% inhibitory concentration (IC50) and 50% cytotoxic concentration (CC50) values were obtained using Sigma Plot 12.0 statistical analysis software (Systat Software) and calculated using a non-linear regression analysis with 95% confidence limits. Leishmanicidal and trypanocidal activity assays, as well as cytotoxicity assays, were performed three times on different days, and the results were expressed as means ± standard deviations. The analysis of variance was determined using a one-way ANOVA using the GraphPad.PRISM® 9.0 software program (GraphPad Software, San Diego, CA, USA). Differences at p < 0.05 were considered statistically significant.

[4] = test system: promastigotes of L. donovani; assay: as above; type: cell-based, Leishmania donovani; conditions: for Selectivity index (CC50/IC50), L. donovani: CC50 in murine macrophages; for IC50: Leishmania donovani, 72 h, Alamar Blue, read-out: Antikinetoplastid activity IC50, L. donovani
Description: as §1, §2, §3, §4

[5] = test system: epimastigotes of Trypanosoma cruzi; assay: Trypanocidal activity assay (Alamar Blue), epimastigotes; type: cell-based; conditions: for Selectivity index (CC50/IC50), T. cruzi: CC50 in murine macrophages; for IC50: Trypanosoma cruzi, 72 h, Alamar Blue, read-out: Antikinetoplastid activity IC50, T. cruzi
Description: as §1, §2, §3, §4

[6] = Cytotoxicity assay (Alamar Blue); type: cell-based; conditions: mouse, J774A.1 murine macrophage cell line, J774A.1, 24 h, read-out: Cytotoxicity CC50, murine macrophages
Description: as §1
In a sterile 96-well plate, murine macrophages of the cell line J774A.1 were placed to reach an amount of 10^5 cells per well using RPMI 1640 medium without phenol red. After murine macrophage attachment, 50 µL serial dilutions of the isolated compounds were added in each well until reaching a final volume of 100 µL. Next, 10% of Alamar Blue® was placed into each well and the plate was incubated for 24 h at 37 °C with a 5% CO2 atmosphere. Finally, the plates were analyzed using an EnSpire® Multimode Plate Reader (PerkinElmer, Madrid, Spain), as described in the previous section, and the 50% cytotoxic concentration (CC50) values were calculated.
as §4

[7] = test system: intracellular amastigotes of L. amazonensis; assay: In vitro effect against amastigote stage in infected macrophages; type: cell-based, Leishmania amazonensis; conditions: for Selectivity index (CC50/IC50), amastigotes of L. amazonensis: CC50 in murine macrophages; for IC50: Leishmania amazonensis, J774.A1, intracellular amastigotes in J774A.1 macrophages, 24 h treatment
Description: To determine the in vitro effect against the amastigote stage of L. amazonensis, murine macrophages were infected. In a sterile 96 well-plate, macrophages of the J774A.1 cell line were placed in RPMI 1640 to reach 10^5 macrophages per well. This plate was incubated at 37 °C in a 5% CO2 atmosphere. After one hour of incubation, 100 µL of stationary-phase promastigotes of 7-day-old culture was added in a 10:1 ratio (10^6 parasites per well) and the plates were re-incubated at 37 °C for 24 h to achieve maximum infection. Then, the wells were washed with fresh medium to remove non-phagocytosed promastigotes. The infected macrophages were treated with the compounds isolated for 24 h. Then, the medium was removed carefully to be replaced by 30 μL of 0.05% SDS and the plate was shaken for 30 s. After broke macrophages, 170 μL of Schneider’s medium was added to each well to give a final volume of 200 μL and 20 μL of Alamar Blue® was added to the plate being incubated at 26 °C for 72 h, as described by López-Arencibia et al. (2017). After 72 h of incubation, the plates were analyzed using the same protocol for the promastigote test.

[8] = test system: L. amazonensis promastigotes; assay: Transmission electron microscopy, ultrastructural effects; type: cell-based, Leishmania amazonensis; conditions: IC90, 24 h
Description: (§5) The analysis of the ultrastructural and morphological damage caused by the compounds in the parasites was performed in collaboration with the Facultad de Estudios Superiores Iztacala (FESI), Medicina, UNAM (Mexico). These assays were performed after incubation of the promastigotes of L. amazonensis and epimastigotes of T. cruzi at the IC90 levels of the pure compounds over 24 h. TEM images were obtained using the conventional microscopy technique as previously described by Castelan-Ramirez et al. in a JEOL JEM-1011 transmission electron microscope (JEOL Ltd., Tokyo, Japan).

[9] = test system: T. cruzi epimastigotes; assay: as above; type: cell-based, Trypanosoma cruzi; conditions: IC90, 24 h
Description: as §5

[10] = test system: L. amazonensis promastigotes; assay: ATP level analysis (Cell Titer-Glo); type: cell-based, Leishmania amazonensis; conditions: IC90 of compound, 24 h
Description: To study the mechanism of cell death induced in parasites by compounds isolated from Gongolaria abies-marina, a common step was carried out to perform the following five experiments. The promastigotes of Leishmania spp. and epimastigotes of T. cruzi were incubated at the IC90 levels of the compounds (previously calculated) for 24 h at 26 °C. After incubation, the parasites were centrifuged at 3000 rpm for 10 min at 4 °C. The pellets were resuspended following the manufacturer’s instructions for each kit. After the incubation of promastigotes and epimastigotes of the parasites with the IC90 of the compounds, the changes in ATP levels were measured using a Cell Titer-Glo® Luminescent Cell Viability Assay (Promega, WI, USA). The assay was carried out in a white 96-well plate following the manufacturer’s instructions, as previously described by Cartuche et al. (2020). The luminescence was measured using an EnSpire® Multimode Plate Reader (PerkinElmer, Madrid, Spain).

[11] = test system: T. cruzi epimastigotes; assay: Mitochondrial membrane potential (JC-1 assay); type: cell-based, Trypanosoma cruzi; conditions: IC90, 24 h
Description: To study the mechanism of cell death induced in parasites by compounds isolated from Gongolaria abies-marina, a common step was carried out to perform the following five experiments. The promastigotes of Leishmania spp. and epimastigotes of T. cruzi were incubated at the IC90 levels of the compounds (previously calculated) for 24 h at 26 °C. After incubation, the parasites were centrifuged at 3000 rpm for 10 min at 4 °C. The pellets were resuspended following the manufacturer’s instructions for each kit. A JC-1 Mitochondrial Membrane Potential Assay Kit® (Cayman Chemical, Ann Arbor, MI, USA) was used to analyze variations in the mitochondrial membrane potential of the parasites after incubation at the IC90 levels of the compounds. After centrifugation, the parasites were resuspended in the same buffer and transferred to a black 96-well plate. JC-1 was added following the manufacturer’s instructions as also described by López-Arencibia et al. (2020). Green and red fluorescence was measured using an EnSpire® Multimode Plate Reader (PerkinElmer, Madrid, Spain).

[12] = listed as 6Z-1′-methoxyamentadione
[13] = listed as 6Z-1′-methoxyamentadione (3)

| Compound | Selectivity index (CC50/IC50), L. amazonensis [3] | IC50 [3] [µM] | Selectivity index (CC50/IC50), L. donovani [4] | IC50 [4] [µM] | Selectivity index (CC50/IC50), T. cruzi [5] | IC50 [5] [µM] | CC50 at 24 h [6] [µM] | Selectivity index (CC50/IC50), amastigotes of L. amazonensis [7] | IC50 [7] [µM] | also measured |
| --- | --- | --- | --- | --- | --- | --- | --- | --- | --- | --- |
| 3R-tetraprenyltoluquinone |  |  |  |  |  |  |  |  |  | IC50 [1]: 44.9 µM; IC50 [2]: 25 µM |
| 3S-tetraprenyltoluquinone |  |  |  |  |  |  |  |  |  | IC50 [1]: 94.4 µM; IC50 [2]: 88 µM |
| COc1c(C)cc(O)cc1C/C=C(\C)CC(=O)/C=C(\C)CCC[C@@H](C)C(=O)/C=C/C(C)(C)O [1′-Methoxyamentadione (4), 1′-methoxyamentadione] | 5.41 | ~4.88 | 0.21 | 126.5 ± 1.15 | 5.36 | 4.93 ± 0.55 | 26.4 ± 2.27 | 0.96 | 27.6 ± 1.68 | Ultrastructural and morphological alterations (TEM) ([8]; listed as 1′-methoxyamentadione): mitochondrial expansion (M), chromatin condensation in the nucleus (*), intense vacuolization (V), the formation of some autophagy vacuoles; Ultrastructural and morphological alterations (TEM) ([8]; listed as 1′-methoxyamentadione (4)): alteration of the flagellar pocket; Ultrastructural and morphological alterations (TEM) ([8]; listed as 4): showed two nuclei; Ultrastructural and morphological alterations (TEM) [9]: morphological mitochondrial (M) and kinetoplast (K) alterations, chromatin condensation in the nucleus (*), intense vacuolization (V) and the formation of some autophagy vacuoles |
| COc1c(C)cc(O)cc1C/C=C(\C)CC(=O)/C=C(/C)CCC[C@@H](C)C(=O)/C=C/C(C)(C)O [6Z-1′-Methoxyamentadione (3), 6Z-1′-methoxyamentadione] | 5.49 | ~4.88 | 0.27 | 97.9 ± 5.32 | 8.19 | 3.26 ± 0.11 | 26.8 ± 4.06 | 1.66 | 16.2 ± 2.61 | ATP levels relative to negative control [10]: greatest effect; Ultrastructural and morphological alterations (TEM) [8, 12]: mitochondrial expansion (M), chromatin condensation in the nucleus (*), intense vacuolization (V), the formation of some autophagy vacuoles; Ultrastructural and morphological alterations (TEM) [8, 13]: alteration of the flagellar pocket; Ultrastructural and morphological alterations (TEM) [9, 12]: morphological mitochondrial (M) and kinetoplast (K) alterations, chromatin condensation in the nucleus (*), intense vacuolization (V) and the formation of some autophagy vacuoles; Ultrastructural and morphological alterations (TEM) [9, 13]: Morphological alterations of the mitochondria and kinetoplast |
| O=C(Cn1ccnc1[N+](=O)[O-])NCc1ccccc1 [Benznidazole, benznidazole, reference compound] |  |  |  |  | 57.51 | 6.95 ± 0.5 |  |  |  |  |
| COc1c(C)cc(O)cc1C/C=C(\C)CC(=O)C/C(C)=C/CC[C@@H](C)C(=O)/C=C/C(C)(C)O [Gongolarone B (2), gongolarone B] | 3.79 | 6.45 ± 0.44 |  |  | 8.36 | 2.92 ± 0.25 | 24.4 ± 3.98 | 1.50 | 16.2 ± 1.9 | Activity against L. donovani (in words) [4]: lost its activity; ATP levels relative to negative control [10]: decreased; Mitochondrial membrane potential changes (JC-1) [11]: greatest decrease; Ultrastructural and morphological alterations (TEM) [8]: mitochondrial expansion (M), chromatin condensation in the nucleus (*), intense vacuolization (V), the formation of some autophagy vacuoles; Ultrastructural and morphological alterations (TEM) ([9]; listed as gongolarone B): morphological mitochondrial (M) and kinetoplast (K) alterations, chromatin condensation in the nucleus (*), intense vacuolization (V) and the formation of some autophagy vacuoles; Ultrastructural and morphological alterations (TEM) ([9]; listed as gongolarone B (2)): Morphological alterations of the mitochondria and kinetoplast |
| CCCCCCCCCCCCCCCCOP(=O)([O-])OCC[N+](C)(C)C [Miltefosine, miltefosine, reference compound] | 11.10 | 6.48 ± 0.1 | 21.80 | 3.31 ± 0.11 |  |  | 72.2 ± 1.25 | 23.16 | 3.12 ± 0.12 |  |
